Our source for the IC50 values is BindingDB's records for doi:10.1021/jm8009124 (University of Connecticut At Storrs, 2008).

In the assay the target is T1, Bifunctional dihydrofolate reductase-thymidylate synthase (Cryptosporidium parvum, UniProt Q27552).
T1 sequence (Q27552 whole entry): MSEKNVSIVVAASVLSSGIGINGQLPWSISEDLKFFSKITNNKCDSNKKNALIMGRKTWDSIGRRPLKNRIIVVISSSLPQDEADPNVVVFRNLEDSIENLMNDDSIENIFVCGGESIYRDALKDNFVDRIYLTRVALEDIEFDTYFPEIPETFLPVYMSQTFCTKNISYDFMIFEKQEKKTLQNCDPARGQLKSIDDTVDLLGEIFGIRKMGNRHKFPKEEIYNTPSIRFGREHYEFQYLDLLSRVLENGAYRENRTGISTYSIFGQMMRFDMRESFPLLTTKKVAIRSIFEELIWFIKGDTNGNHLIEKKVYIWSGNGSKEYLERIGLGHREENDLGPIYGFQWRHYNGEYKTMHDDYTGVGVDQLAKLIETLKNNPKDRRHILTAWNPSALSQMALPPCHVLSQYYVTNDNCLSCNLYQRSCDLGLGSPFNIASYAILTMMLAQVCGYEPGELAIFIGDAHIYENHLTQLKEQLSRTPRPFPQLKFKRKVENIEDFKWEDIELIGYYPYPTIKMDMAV
Description: DHFR Inhibition Assay. Particulars: pH 7; 25 °C. As for the experimental part:
Enzyme activity assays were performed by monitoring the change in UV absorbance at 340 nm. Enzyme assays were performed at least four times. IC50 values and their standard deviations were calculated in the presence of varying ligand concentration.

As usually defined, the IC50 is the concentration that inhibits the measured activity by half. The compound `COc1cc(-c2c(C(C)C)cccc2C(C)C)cc(C(C)C#Cc2c(C)nc(N)nc2N)c1` (stereo unspecified) [5-(3-{3-[2,6-bis(propan-2-yl)phenyl]-5-methoxyphenyl}but-1-yn-1-yl)-6-methylpyrimidine-2,4-diamine] showed an IC50 of 10 nM. `COc1cc(C(C)C#Cc2c(C)nc(N)nc2N)ccc1-c1ccccc1` (stereo unspecified) [5-[3-(3-methoxy-4-phenylphenyl)but-1-yn-1-yl]-6-methylpyrimidine-2,4-diamine] displayed an IC50 of 19 nM. For `COc1cc(-c2ccccc2)cc([C@@H](C)C#Cc2c(C)nc(N)nc2N)c1` [5-[(3R)-3-(3-methoxy-5-phenylphenyl)but-1-yn-1-yl]-6-methylpyrimidine-2,4-diamine] the value was 1.1 nM; for `COc1cc(-c2ccccc2)cc([C@H](C)C#Cc2c(C)nc(N)nc2N)c1` [5-[(3S)-3-(3-methoxy-5-phenylphenyl)but-1-yn-1-yl]-6-methylpyrimidine-2,4-diamine], 30 nM.

As for `COc1cc(C(C)C#Cc2c(C)nc(N)nc2N)ccc1-c1ccccc1C` (stereo unspecified) [5-{3-[3-methoxy-4-(2-methylphenyl)phenyl]but-1-yn-1-yl}-6-methylpyrimidine-2,4-diamine], the IC50 turned out to be 36 nM. The figure for `COc1cc(C(C)C#Cc2c(C)nc(N)nc2N)ccc1-c1c(C)cccc1C` (stereo unspecified) [5-{3-[4-(2,6-dimethylphenyl)-3-methoxyphenyl]but-1-yn-1-yl}-6-methylpyrimidine-2,4-diamine] is 7.4 nM.
